Laboratory results published in US20090226398A1, “ANTI-VIRAL COMPOUNDS, COMPOSITIONS, AND METHODS OF USE” (Genelabs Technologies, Inc., priority 2008, published 2009).

What follows are compounds tested on HCV replication (assay: Replicon Assay (Huh-lucubineo-ET cells, luciferase readout)). Conditions: Hepatitis C virus; ET (Huh-lucubineo-ET) HCV replicon cell line; luciferase activity 48-72 hours after compound addition; 6 dilutions.
Format: cell-based
Outline: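 Huh-lucubineo-ET cells stably carrying a firefly luciferase-ubiquitin-neo/NS3-5B ET replicon (adaptive mutations E1202G, T1280I, K1846T) were plated 24 h before compound, then treated at 5 or 50 μM or six 3-fold dilutions. Luciferase read 48-72 h later; % inhibition vs no-compound control, EC50/TC50 from Hill-equation fit.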

Structure (SMILES) | EC50
CCOc1ccc(-c2ccc(Cn3cc4nc(-c5ccccc5F)nc-4cn3)nn2)c(C(F)(F)F)c1 [Compound 315, 5-[6-(4-Ethoxy-2-trifluoromethyl-phenyl)-pyridazin-3-ylmethyl]-2-(2-fluoro-phenyl)-5H-imidazo[4,5-d]pyridazine] | 20 nM
CCCOc1ccc(-c2ccc(Cn3cc4nc(-c5ccccc5F)nc-4cn3)nn2)c(C(F)(F)F)c1 [Compound 316, 2-(2-Fluoro-phenyl)-5-[6-(4-propoxy-2-trifluoromethyl-phenyl)-pyridazin-3-ylmethyl]-5H-imidazo[4,5-d]pyridazine] | 32 nM
COc1ccc(-c2ccc(Cn3cc4nc(-c5ccccc5F)nc-4cn3)nn2)c(C(F)(F)F)c1 [Compound 317, 2-(2-Fluoro-phenyl)-5-[6-(4-methoxy-2-trifluoromethyl-phenyl)-pyridazin-3-ylmethyl]-5H-imidazo[4,5-d]pyridazine] | 64 nM
CC(=O)COc1ccc(-c2ccc(Cn3cc4nc(-c5cccc(F)c5F)nc-4cn3)nn2)c(C(F)(F)F)c1 [Compound 318, 1-(4-{6-[2-(2,3-Difluoro-phenyl)-imidazo[4,5-d]pyridazin-5-ylmethyl]-pyridazin-3-yl}-3-trifluoromethyl-phenoxy)-propan-2-one] | 663 nM
CC(O)COc1ccc(-c2ccc(Cn3cc4nc(-c5cccc(F)c5F)nc-4cn3)nn2)c(C(F)(F)F)c1 (stereo not drawn) [Compound 319, 1-(4-{6-[2-(2,3-Difluoro-phenyl)-imidazo[4,5-d]pyridazin-5-ylmethyl]-pyridazin-3-yl}-3-trifluoromethyl-phenoxy)-propan-2-ol] | 4520 nM
Fc1cccc(-c2nc3cnn(Cc4ccc(-c5ccc(OCC6CCOCC6)cc5C(F)(F)F)nn4)cc-3n2)c1F [Compound 320, 2-(2,3-Difluoro-phenyl)-5-{6-[4-(tetrahydro-pyran-4-ylmethoxy)-2-trifluoromethyl-phenyl]-pyridazin-3-ylmethyl}-5H-imidazo[4,5-d]pyridazine] | 1710 nM
CC[C@H](C)COc1ccc(-c2ccc(Cn3cc4nc(-c5cccc(F)c5F)nc-4cn3)nn2)c(C(F)(F)F)c1 [Compound 321, 2-(2,3-Difluoro-phenyl)-5-{6-[4-(2-methyl-butoxy)-2-trifluoromethyl-phenyl]-pyridazin-3-ylmethyl}-5H-imidazo[4,5-d]pyridazine] | 45 nM
CCOc1ccc(-c2ccc(Cn3cc4nc(-c5ccccc5F)nc-4cn3)cn2)c(C(F)(F)F)c1 [Compound 322, 5-[6-(4-Ethoxy-2-trifluoromethyl-phenyl)-pyridin-3-ylmethyl]-2-(2-fluoro-phenyl)-5H-imidazo[4,5-d]pyridazine] | 33 nM
CCCOc1ccc(-c2ccc(Cn3cc4nc(-c5ccccc5F)nc-4cn3)cn2)c(C(F)(F)F)c1 [Compound 323, 2-(2-Fluoro-phenyl)-5-[6-(4-propoxy-2-trifluoromethyl-phenyl)-pyridin-3-ylmethyl]-5H-imidazo[4,5-d]pyridazine] | 33 nM
COCCOc1ccc(-c2ccc(Cn3cc4nc(-c5cccc(F)c5F)nc-4cn3)nn2)c(C(F)(F)F)c1 [Compound 324, 2-(2,3-Difluoro-phenyl)-5-{6-[4-(2-methoxy-ethoxy)-2-trifluoromethyl-phenyl]-pyridazin-3-ylmethyl}-5H-imidazo[4,5-d]pyridazine] | 65 nM
N#CCOc1ccc(-c2ccc(Cn3cc4nc(-c5cccc(F)c5F)nc-4cn3)nn2)c(C(F)(F)F)c1 [Compound 325, (4-{6-[2-(2,3-Difluoro-phenyl)-imidazo[4,5-d]pyridazin-5-ylmethyl]-pyridazin-3-yl}-3-trifluoromethyl-phenoxy)-acetonitrile] | 107 nM
Fc1cccc(-c2nc3cnn(Cc4ccc(-c5ccc(OCC6CCOC6)cc5C(F)(F)F)nn4)cc-3n2)c1F (stereo not drawn) [Compound 326, 2-(2,3-Difluoro-phenyl)-5-{6-[4-(tetrahydro-furan-3-ylmethoxy)-2-trifluoromethyl-phenyl]-pyridazin-3-ylmethyl}-5H-imidazo[4,5-d]pyridazine] | 1680 nM
Fc1cccc(-c2nc3cnn(Cc4ccc(-c5ccc(OCC6CC6)cc5C(F)(F)F)nn4)cc-3n2)c1F [Compound 327, 5-[6-(4-Cyclopropylmethoxy-2-trifluoromethyl-phenyl)-pyridazin-3-ylmethyl]-2-(2,3-difluoro-phenyl)-5H-imidazo[4,5-d]pyridazine] | 54 nM
CC(C)COc1ccc(-c2ccc(Cn3cc4nc(-c5cccc(F)c5F)nc-4cn3)nn2)c(C(F)(F)F)c1 [Compound 328, 2-(2,3-Difluoro-phenyl)-5-[6-(4-isobutoxy-2-trifluoromethyl-phenyl)-pyridazin-3-ylmethyl]-5H-imidazo[4,5-d]pyridazine] | 35 nM
CC(C)CCOc1ccc(-c2ccc(Cn3cc4nc(-c5cccc(F)c5F)nc-4cn3)nn2)c(C(F)(F)F)c1 [Compound 329, 2-(2,3-Difluoro-phenyl)-5-{6-[4-(3-methyl-butoxy)-2-trifluoromethyl-phenyl]-pyridazin-3-ylmethyl}-5H-imidazo[4,5-d]pyridazine] | 858 nM
Fc1cccc(-c2nc3cnn(Cc4ccc(-c5ccc(OCCn6ccnc6)cc5C(F)(F)F)nn4)cc-3n2)c1F [Compound 330, 2-(2,3-Difluoro-phenyl)-5-{6-[4-(2-imidazol-1-yl-ethoxy)-2-trifluoromethyl-phenyl]-pyridazin-3-ylmethyl}-5H-imidazo[4,5-d]pyridazine] | ≥ 50000 nM
Fc1cccc(-c2nc3cnn(Cc4ccc(-c5ccc(-c6ccccn6)cc5C(F)(F)F)nn4)cc-3n2)c1F [Compound 331, 2-(2,3-Difluoro-phenyl)-5-[6-(4-pyridin-2-yl-2-trifluoromethyl-phenyl)-pyridazin-3-ylmethyl]-5H-imidazo[4,5-d]pyridazine] | ≥ 50000 nM
CC(C)Cc1ccc(-c2ccc(Cn3cc4nc(-c5cccc(F)c5F)nc-4cn3)nn2)c(C(F)(F)F)c1 [Compound 332, 2-(2,3-Difluoro-phenyl)-5-[6-(4-isobutyl-2-trifluoromethyl-phenyl)-pyridazin-3-ylmethyl]-5H-imidazo[4,5-d]pyridazine] | 19 nM
CCCOc1ccc(-c2ccc(Cn3cc4nc(-c5cccc(F)c5F)nc-4cn3)cn2)c(C(F)(F)F)c1 [Compound 333, 2-(2,3-Difluoro-phenyl)-5-[6-(4-propoxy-2-trifluoromethyl-phenyl)-pyridin-3-ylmethyl]-5H-imidazo[4,5-d]pyridazine] | 10 nM
COc1ccc(-c2ccc(Cn3cc4nc(-c5cccc(F)c5F)nc-4cn3)c(N)c2)c(C(F)(F)F)c1 [Compound 334, 4-[2-(2,3-Difluoro-phenyl)-imidazo[4,5-d]pyridazin-5-ylmethyl]-4′-methoxy-2′-trifluoromethyl-biphenyl-3-ylamine] | 20 nM
Nc1cc(C(F)(F)F)ccc1-c1ccc(Cn2cc3nc(-c4cccc(F)c4F)nc-3cn2)cn1 [Compound 335, 2-{5-[2-(2,3-Difluoro-phenyl)-imidazo[4,5-d]pyridazin-5-ylmethyl]-pyridin-2-yl}-5-trifluoromethyl-phenylamine] | 2390 nM
Cc1ccc(-c2ccc(C(F)(F)F)cc2C(F)(F)F)c(Cn2cc3nc(-c4cccc(F)c4F)nc-3cn2)n1 [Compound 336, 5-[3-(2,4-Bis-trifluoromethyl-phenyl)-6-methyl-pyridin-2-ylmethyl]-2-(2,3-difluoro-phenyl)-5H-imidazo[4,5-d]pyridazine] | ≥ 50000 nM
Cc1nc(Cn2cc3nc(-c4cccc(F)c4F)nc-3cn2)ccc1-c1ccc(C(F)(F)F)cc1C(F)(F)F [Compound 337, 5-[5-(2,4-Bis-trifluoromethyl-phenyl)-6-methyl-pyridin-2-ylmethyl]-2-(2,3-difluoro-phenyl)-5H-imidazo[4,5-d]pyridazine] | 166 nM
COc1ccc(-c2ccc(Cn3cc4nc(-c5cccc(F)c5F)nc-4cn3)c[n+]2[O-])c(C(F)(F)F)c1 [Compound 338, 2-(2,3-Difluoro-phenyl)-5-[6-(4-methoxy-2-trifluoromethyl-phenyl)-1-oxy-pyridin-3-ylmethyl]-5H-imidazo[4,5-d]pyridazine] | 1300 nM
CNc1cccc(-c2nc3cnn(Cc4ccc(-c5ccc(C(F)(F)F)cc5C(F)(F)F)nc4)cc-3n2)c1F [Compound 339, (3-{5-[6-(2,4-Bis-trifluoromethyl-phenyl)-pyridin-3-ylmethyl]-5H-imidazo[4,5-d]pyridazin-2-yl}-2-fluoro-phenyl)-methyl-amine] | 14300 nM
N#Cc1cc(C(F)(F)F)ccc1-c1ccc(Cn2cc3nc(-c4cccc(F)c4F)nc-3cn2)cn1 [Compound 340, 2-{5-[2-(2,3-Difluoro-phenyl)-imidazo[4,5-d]pyridazin-5-ylmethyl]-pyridin-2-yl}-5-trifluoromethyl-benzonitrile] | 95 nM
Fc1cccc(-c2nc3cnn(Cc4ccc(Oc5ccc(OC(F)(F)F)cc5)nn4)cc-3n2)c1F [Compound 341, 2-(2,3-Difluoro-phenyl)-5-[6-(4-trifluoromethoxy-phenoxy)-pyridazin-3-ylmethyl]-5H-imidazo[4,5-d]pyridazine] | 6030 nM
COc1ccc(-c2ccc(Cn3cc4nc(-c5cccc(F)c5F)nc-4cn3)c(C(=O)O)c2)c(C(F)(F)F)c1 [Compound 342, 4-[2-(2,3-Difluoro-phenyl)-imidazo[4,5-d]pyridazin-5-ylmethyl]-4′-methoxy-2′-trifluoromethyl-biphenyl-3-carboxylic acid] | ≥ 50000 nM
Fc1cccc(-c2nc3cnn(Cc4ccc(Oc5ccc(C(F)(F)F)cc5C(F)(F)F)cc4)cc-3n2)c1F [Compound 343, 5-[4-(2,4-Bis-trifluoromethyl-phenoxy)-benzyl]-2-(2,3-difluoro-phenyl)-5H-imidazo[4,5-d]pyridazine] | 26900 nM
Fc1cccc(-c2nc3cnn(Cc4ccc(-c5ccc(Br)c(C(F)(F)F)c5)cc4)cc-3n2)c1F [Compound 344, 5-(4′-Bromo-3′-trifluoromethyl-biphenyl-4-ylmethyl)-2-(2,3-difluoro-phenyl)-5H-imidazo[4,5-d]pyridazine] | 320 nM
